# Assay results taken from the Biogen ADME set (Fang et al. 2023).
# Settings: for aqueous solubility: pH 6.8
Compound,MDR1-MDCK efflux ratio,"intrinsic clearance, human liver microsomes [mL/min/kg]","intrinsic clearance, rat liver microsomes [mL/min/kg]","fraction unbound, human plasma","fraction unbound, rat plasma",aqueous solubility [µg/mL]
Cc1cc(C(F)(F)F)nc(CCNC(=O)N(C)Cc2c(C)noc2C)n1,16.4,172,578,,,
Cc1cc(-c2nncc3c(C(C)(C)C)c(OCc4ncnn4C)nn23)no1,8.04,≤ 4.74,83.6,,,
Cn1cc(Nc2nc(N)nc(-c3cccc(-n4ccc5cc(C6CC6)cc(F)c5c4=O)c3CO)n2)cn1,24.3,≤ 4.74,37.9,0.0709,0.0381,
Cn1ccc(NC(=O)c2cc(-c3ccncc3)nc3ccccc23)n1,,21.4,65.7,,,31.5
Cc1cc(N(C)C)nc(-n2ccnc2)n1,0.704,39.7,83.1,,,28.5
CC(C)C[C@H](CO)Nc1nc(S[C@@H](C)c2ccccc2)nc2nc(N)sc12,,40.2,329,,,
C[C@@H](CO)Nc1nc(C(F)(F)F)nc2[nH]cnc12,6.72,≤ 4.74,≤ 10.7,,,40
N=C(N)NCCCCC(=O)Nc1ccc(C[C@H](NC(=O)[C@@H]2CCCN2S(=O)(=O)c2ccccc2)C(=O)O)cc1,,≤ 4.74,≤ 10.7,,,
Cn1cc(CCNc2cncc(Br)c2)cn1,0.655,12,110,,,40.4
Cc1ncc(C)n2nc([C@@H]3C[C@H]3c3nc4c5cccnc5ccn4c3C)nc12,1.4,16.1,82.1,,,
O=C(c1ccc(F)c(F)c1)N1CCN(C(=O)c2nc(Cl)ccc2Cl)CC1,4.42,≤ 4.74,23.3,,,61.7
O=C1CCC(=O)N1Cc1nc(Cc2ccccc2)cs1,,≤ 4.74,145,,,
O=C(CCc1cccs1)Nc1ccc(N2CCCC2)cn1,,,,,,1.18
CCc1nc(CN2C(=O)COc3ccc(F)cc32)cs1,0.688,65.1,1250,,,20.9
Cc1cn2c3c(=O)n(Cc4ccccc4Cl)c(=O)n(C)c3nc2n1-c1ccccc1O,12.8,,,,,0.19
COCC(=O)Nc1nc(C)c(C)s1,0.659,18.9,71.3,,,25.6
CN(CCN1CCOC1=O)C(=O)c1cc2cc(Br)ccc2o1,2.28,13.2,107,,,50.9
CC(C)n1nnnc1-c1ccc(N)cc1F,0.63,≤ 4.74,40.2,,,23.5
O=C(CCc1ccco1)Nc1ccccc1OC(F)F,0.533,116,831,,,44.6

Compound,MDR1-MDCK efflux ratio,"intrinsic clearance, human liver microsomes [mL/min/kg]","intrinsic clearance, rat liver microsomes [mL/min/kg]","fraction unbound, human plasma","fraction unbound, rat plasma",aqueous solubility [µg/mL]
c1ccc(-n2cnc3cc(NCc4ccccn4)ccc32)cc1,,22.6,3200,,,18.4
CON(C)C(=O)Cc1c(C)[nH]c2ccccc12,0.627,≤ 4.74,70.4,,,53
CCCC(=O)N1CCC(c2cccc(C)n2)CC1,0.574,≤ 4.74,443,,,40.2
Cc1ccccc1C(=O)N1CCC(O)(Cn2ccnc2C)CC1,4.93,4.92,100,,,
Cc1noc(C)c1-c1cc(-c2ccccc2Cl)nc(C2CC2)n1,0.516,21.8,145,,,
COc1ccc(OC[C@@H]2c3cc(OC)c(OC)cc3CCN2C(=O)c2cccc(Cl)c2)cc1,1.25,,,0.00764,0.0171,
OC1(c2cccnc2F)CCN(Cc2ccc(-c3ccc(F)cc3)o2)CC1,0.57,18.9,170,,,
O=C(NC[C@H]1CCN(c2ccccc2)C1)N1CCc2sccc2C1,0.834,226,2510,,,16.9
Cn1nccc1C(=O)C1CCN(C(=O)c2cc(C(C)(C)C)nn2C)CC1,,≤ 4.74,97.9,,,
CC(=O)NC[C@H]1C[C@]2(C)[C@@H](CCCC[C@]2(C)O)N1CC1(O)CCCC1,8.2,≤ 4.74,107,,,
Cc1csc(N(C(=O)c2cc3c(C)nn(C)c3s2)C2CC2)n1,0.642,121,255,,,57.3
CCCCCCCC/C(=C\CCCCCCCC(=O)O)[N+](=O)[O-],,42.9,84.9,,,12.7
CC1(C)CCN(C(=O)NCCOc2cccnc2)C1,3.33,≤ 4.74,47.9,,,39.8
O=C1NC2(CCCC2)C(=O)N1Cc1ccccc1F,,,,,,44.5
Cc1ccc(-n2cc(C(=O)NCCN(C)C)nn2)cc1C,3.18,≤ 4.74,189,,,28.4
N#CC1(NC(=O)c2ccc3c(c2)OCO3)CCCC1,,≤ 4.74,64.9,,,
CCN(CC)C(=O)c1ccc(C2=CC3(CCNCC3)Oc3cccc(O)c32)cc1,20.9,9,65.8,,,
CC1=C(C(=O)Nc2cc3cn[nH]c3cc2F)C(c2ccc(C(F)(F)F)cc2)CC(=O)N1 (centres undefined),56.3,51,120,,,
CCN(C(=O)c1cc(NC(C)=O)ccc1F)C1CCCC1,14.2,63,2210,,,48.8

Compound,MDR1-MDCK efflux ratio,"intrinsic clearance, human liver microsomes [mL/min/kg]","intrinsic clearance, rat liver microsomes [mL/min/kg]","fraction unbound, human plasma","fraction unbound, rat plasma",aqueous solubility [µg/mL]
Cc1cc(NC(=O)CCc2cnn(C)c2)c2ccccc2n1,7.68,≤ 4.74,25,,,43.2
CN1C(=O)N(CC(=O)NCc2ccc(Cl)cc2)C(=O)C12CCCCC2,5.53,796,2110,,,50.7
N#Cc1ccccc1OCn1nnc2ccccc2c1=O,,,,,,0.65
CC(=O)NCC1CCN(C(=O)c2cncn2-c2ccc(F)cc2)CC1,59.5,≤ 4.74,29.3,,,46.3
Cc1nc(CN2CCC(CNC(=O)COc3ccccc3Cl)CC2)c[nH]1,5.32,≤ 4.74,58.1,,,
O=C(Nc1ccc(F)cc1)c1cc(C2CC2)nn1-c1ccccc1,0.314,20.7,76.3,,,4.11
CCN(c1ccccc1)S(=O)(=O)c1ccc(C(=O)Nc2ccccc2C(C)=O)cc1,1.18,,,,,0.45
Cc1ccc2c(C(=O)N(C)C)cc(-c3cnc(C(C)C)nc3)nc2c1C,1.95,16.7,836,,,2.43
N#Cc1nc(-c2ccccc2)oc1NCc1ccccc1,,197,2470,,,
O=C(CSCCc1ccccn1)Nc1ccccc1,0.518,42.1,2670,,,
Cc1nn(CCNS(=O)(=O)N2CCCCC2)c(C)c1C,1.53,163,3200,,,
CCN1C(=O)C(C)(C)COc2cc(NS(=O)(=O)c3cc(C)c(C)cc3OC)ccc21,,445,9320,,,
CN1[C@@H]2CC[C@H]1C[C@H](OC(c1ccccc1)c1ccccc1)C2,7.37,9.86,1090,0.128,0.152,52.1
Cc1cccc(Oc2ncccc2N)c1C,0.588,11.7,308,,,45.3
Cc1cc(C)n(-c2cccc(NC(=O)c3ccc(F)c(F)c3)c2)n1,0.649,31.3,353,,,1.61
COc1ccc(C(=O)Cn2c(=O)n(-c3ccccc3F)c3nc(C)nc(C(N)=O)c32)cc1,1.46,≤ 4.74,76,,,3.69
Cc1ccc(-c2nc3ccccc3[nH]2)cc1NS(=O)(=O)c1ccc(Cl)cc1,4.88,,,,,0.28
COc1ccc(Cc2noc(-c3cccc4c3OCC(=O)N4)n2)cc1,,18.6,148,,,
CN(Cc1cscn1)c1nc2c(cc1C#N)CCC2,0.641,94.9,1180,,,33.6
